pIC50: −log10 of the molar value.
Tests used:
Assay type in all cases: biochemical
cauliflower pol α = test: DNA polymerase assay, plant pol α; settings: 100 μM
Excerpt: (§1) Pol α was purified from calf thymus by immuno-affinity column chromatography, as described by Tamai et al.. Recombinant rat pol β was purified from E. coli JMpβ5, as described by Date et al.. The human pol γ catalytic gene was cloned into pFastBac. Histidine-tagged enzyme was expressed using the BAC-TO-BAC HT Baculovirus Expression System according to the supplier’s manual (Life Technologies, MD, USA) and purified using ProBoundresin (Invitrogen Japan, Tokyo, Japan). Human pols δ and ɛ were purified by nuclear fractionation of human peripheral blood cancer cells (Molt-4) using the second subunit of pols δ and ɛ-conjugated affinity column chromatography, respectively. A truncated form of human pol η (residues 1–511) tagged with His6 at its C-terminal was expressed in E. coli cells and purified as described by Kusumoto et al.. A recombinant mouse pol ι tagged with His6 at its C-terminal was expressed and purified by Ni-NTA column chromatography as described elsewhere (Masutani et al., in preparation). […]
(§2) The compounds were dissolved in distilled dimethyl sulfoxide (DMSO) at various concentrations and sonicated for 30 sec. […] Activity without the inhibitor was considered 100%, and the remaining activity at each concentration of the inhibitor was determined relative to this value. […]

human pol λ = target: T1, human pol λ (Homo sapiens, UniProt Q9UGP5); test: DNA polymerase assay, pol λ; settings: 100 μM
T1 construct: His; made in house
Excerpt: as §1, §2

human pol ɛ = target: T2, human pol ɛ (Homo sapiens, UniProt Q07864); test: DNA polymerase assay, pol ɛ; settings: 100 μM
T2 construct: purified by nuclear fractionation of human peripheral blood cancer cells (Molt-4); endogenous in cells; host or cells: Molt-4
Excerpt: as §1, §2

human pol κ = target: T3, human pol κ (Homo sapiens, UniProt Q9UBT6); test: DNA polymerase assay, pol κ
T3 construct: A truncated form of pol κ (residues 1–560) with 6 x His-tags attached at the C-terminus; 6xHis (C); made in house; host or cells: E. coli
T3 sequence (Q9UBT6 1-560): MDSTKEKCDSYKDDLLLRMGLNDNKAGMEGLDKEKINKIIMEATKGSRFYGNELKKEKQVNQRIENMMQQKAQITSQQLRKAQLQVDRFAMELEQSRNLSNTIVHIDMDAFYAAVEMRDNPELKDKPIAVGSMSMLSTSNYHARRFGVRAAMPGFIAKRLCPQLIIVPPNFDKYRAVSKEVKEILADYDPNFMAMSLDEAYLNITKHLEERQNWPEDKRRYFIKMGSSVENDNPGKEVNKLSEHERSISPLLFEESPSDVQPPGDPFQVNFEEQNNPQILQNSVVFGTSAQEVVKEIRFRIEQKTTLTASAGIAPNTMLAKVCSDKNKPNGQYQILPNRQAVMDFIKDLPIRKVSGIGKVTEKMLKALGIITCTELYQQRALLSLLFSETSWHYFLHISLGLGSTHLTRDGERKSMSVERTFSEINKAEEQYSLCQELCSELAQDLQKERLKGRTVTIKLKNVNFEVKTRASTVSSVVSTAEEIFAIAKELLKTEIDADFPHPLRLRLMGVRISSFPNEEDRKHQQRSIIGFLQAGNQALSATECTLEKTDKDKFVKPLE
Excerpt: as §1, §2

human topoisomerase I = target: T4, human topoisomerase I (Homo sapiens, UniProt P11387); test: DNA topoisomerase I assay; settings: 100 μM
T4 construct: Purified human placenta DNA topoisomerases I and II were purchased from TopoGen, Inc; purchased TopoGen, Inc. (Columbus, OH, USA); host or cells: human placenta (tissue-purified)
Excerpt: as §1, with “al..” for “al.. A recombinant mouse pol ι tagged with His6 at its C-terminal was expressed and purified by Ni-NTA column chromatography as described elsewhere (Masutani et al., in preparation).”
(§3) The activities of calf primase of pol α, human telomerase, T7 RNA polymerase, mouse IMP dehydrogenase, human DNA topoisomerases I and II, T4 polynucleotide kinase and bovine DNase I were measured in standard assays according to the manufacturer’s specifications, as described by Tamiya-Koizumi et al., Oda et al., Nakayama et al., Mizushina et al., Ishimaru et al., Soltis et al. and Lu et al., respectively.

T4 polynucleotide kinase = target: T5, T4 polynucleotide kinase (Enterobacteria phage T4, UniProt P06855); test: T4 polynucleotide kinase assay; settings: 100 μM
T5 construct: purchased Takara Bio (Tokyo, Japan)
Excerpt: as §1, with “al..” for “al.. A recombinant mouse pol ι tagged with His6 at its C-terminal was expressed and purified by Ni-NTA column chromatography as described elsewhere (Masutani et al., in preparation).”
as §3

human pol γ = target: T6, human pol γ (Homo sapiens, UniProt P54098); test: DNA polymerase assay, pol γ; settings: 100 μM
T6 construct: His; made in house
Excerpt: as §1, §2

mouse pol ι = target: T7, mouse pol ι (Mus musculus, UniProt Q6R3M4); test: DNA polymerase assay, pol ι
T7 construct: His6 (C); made in house
Excerpt: as §1, §2

T7 sequence (Q6R3M4 whole entry): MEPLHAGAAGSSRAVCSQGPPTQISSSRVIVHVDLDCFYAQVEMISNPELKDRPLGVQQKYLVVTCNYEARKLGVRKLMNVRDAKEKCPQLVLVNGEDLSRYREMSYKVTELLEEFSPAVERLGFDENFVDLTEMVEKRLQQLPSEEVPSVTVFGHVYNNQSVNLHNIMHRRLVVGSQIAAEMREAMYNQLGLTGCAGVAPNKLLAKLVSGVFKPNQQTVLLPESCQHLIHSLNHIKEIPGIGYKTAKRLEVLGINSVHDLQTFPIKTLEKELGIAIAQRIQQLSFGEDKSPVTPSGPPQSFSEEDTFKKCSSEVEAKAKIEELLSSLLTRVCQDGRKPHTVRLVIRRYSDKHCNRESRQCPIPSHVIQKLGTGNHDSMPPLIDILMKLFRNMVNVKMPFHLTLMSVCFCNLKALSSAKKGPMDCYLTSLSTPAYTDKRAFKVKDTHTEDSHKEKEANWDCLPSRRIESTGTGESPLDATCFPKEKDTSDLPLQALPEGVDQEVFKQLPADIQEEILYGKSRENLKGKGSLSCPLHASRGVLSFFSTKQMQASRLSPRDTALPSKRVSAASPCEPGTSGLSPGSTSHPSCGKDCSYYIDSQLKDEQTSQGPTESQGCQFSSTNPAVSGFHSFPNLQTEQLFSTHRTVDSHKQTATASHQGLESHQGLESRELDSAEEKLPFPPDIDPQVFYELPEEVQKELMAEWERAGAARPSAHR
T6 sequence (P54098 whole entry): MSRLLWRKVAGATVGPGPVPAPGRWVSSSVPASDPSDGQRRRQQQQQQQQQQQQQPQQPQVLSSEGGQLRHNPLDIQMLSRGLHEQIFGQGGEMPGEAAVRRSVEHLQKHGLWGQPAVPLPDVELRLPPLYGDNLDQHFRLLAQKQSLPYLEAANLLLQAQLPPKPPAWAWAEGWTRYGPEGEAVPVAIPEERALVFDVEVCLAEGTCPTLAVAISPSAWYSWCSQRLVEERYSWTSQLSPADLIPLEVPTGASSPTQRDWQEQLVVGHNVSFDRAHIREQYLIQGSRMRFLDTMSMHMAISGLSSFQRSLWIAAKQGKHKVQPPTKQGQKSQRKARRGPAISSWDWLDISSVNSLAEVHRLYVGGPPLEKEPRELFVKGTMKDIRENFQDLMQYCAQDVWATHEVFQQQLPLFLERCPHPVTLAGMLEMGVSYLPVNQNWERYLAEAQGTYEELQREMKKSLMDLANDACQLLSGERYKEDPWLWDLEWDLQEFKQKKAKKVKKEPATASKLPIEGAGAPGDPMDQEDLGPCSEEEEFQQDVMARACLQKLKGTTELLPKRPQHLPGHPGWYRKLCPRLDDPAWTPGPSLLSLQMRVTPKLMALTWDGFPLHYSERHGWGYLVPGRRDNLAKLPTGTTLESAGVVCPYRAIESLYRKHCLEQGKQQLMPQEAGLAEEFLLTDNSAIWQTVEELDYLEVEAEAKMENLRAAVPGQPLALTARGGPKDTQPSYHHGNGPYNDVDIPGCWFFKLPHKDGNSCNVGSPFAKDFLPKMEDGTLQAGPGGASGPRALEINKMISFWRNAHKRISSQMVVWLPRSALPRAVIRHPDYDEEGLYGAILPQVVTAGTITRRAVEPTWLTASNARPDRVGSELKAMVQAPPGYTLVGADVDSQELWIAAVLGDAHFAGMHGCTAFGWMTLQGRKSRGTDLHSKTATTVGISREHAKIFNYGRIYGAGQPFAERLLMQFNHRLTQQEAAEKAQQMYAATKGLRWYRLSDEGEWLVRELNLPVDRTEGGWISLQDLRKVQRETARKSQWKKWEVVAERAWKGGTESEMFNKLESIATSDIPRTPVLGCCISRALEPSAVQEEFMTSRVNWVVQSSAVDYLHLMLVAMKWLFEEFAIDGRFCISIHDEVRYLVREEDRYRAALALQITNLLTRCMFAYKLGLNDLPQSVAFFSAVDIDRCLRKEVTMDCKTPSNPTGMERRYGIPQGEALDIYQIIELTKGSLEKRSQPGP
T5 sequence (P06855 whole entry): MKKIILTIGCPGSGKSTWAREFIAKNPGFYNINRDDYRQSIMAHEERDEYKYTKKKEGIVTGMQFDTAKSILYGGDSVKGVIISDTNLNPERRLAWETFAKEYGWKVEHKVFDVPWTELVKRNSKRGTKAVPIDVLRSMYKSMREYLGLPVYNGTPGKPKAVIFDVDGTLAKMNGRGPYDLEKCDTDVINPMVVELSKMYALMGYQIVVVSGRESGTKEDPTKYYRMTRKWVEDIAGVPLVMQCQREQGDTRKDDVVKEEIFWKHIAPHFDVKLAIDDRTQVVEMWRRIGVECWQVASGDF
T1 sequence (Q9UGP5 whole entry): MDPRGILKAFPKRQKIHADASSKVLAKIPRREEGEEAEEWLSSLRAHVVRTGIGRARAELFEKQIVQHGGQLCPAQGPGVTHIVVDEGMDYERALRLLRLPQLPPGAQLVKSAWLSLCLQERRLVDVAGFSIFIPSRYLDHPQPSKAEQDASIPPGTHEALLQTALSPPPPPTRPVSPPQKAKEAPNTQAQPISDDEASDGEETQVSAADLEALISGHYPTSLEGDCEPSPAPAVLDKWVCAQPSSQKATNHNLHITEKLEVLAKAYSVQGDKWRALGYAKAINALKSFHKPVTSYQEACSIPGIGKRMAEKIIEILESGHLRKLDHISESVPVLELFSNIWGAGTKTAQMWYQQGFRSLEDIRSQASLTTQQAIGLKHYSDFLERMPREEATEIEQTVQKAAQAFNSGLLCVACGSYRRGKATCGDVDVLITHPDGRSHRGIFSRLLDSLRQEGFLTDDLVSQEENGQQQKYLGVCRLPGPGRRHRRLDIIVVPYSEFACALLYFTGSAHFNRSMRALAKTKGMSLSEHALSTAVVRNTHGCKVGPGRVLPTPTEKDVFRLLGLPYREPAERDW
T2 sequence (Q07864 whole entry): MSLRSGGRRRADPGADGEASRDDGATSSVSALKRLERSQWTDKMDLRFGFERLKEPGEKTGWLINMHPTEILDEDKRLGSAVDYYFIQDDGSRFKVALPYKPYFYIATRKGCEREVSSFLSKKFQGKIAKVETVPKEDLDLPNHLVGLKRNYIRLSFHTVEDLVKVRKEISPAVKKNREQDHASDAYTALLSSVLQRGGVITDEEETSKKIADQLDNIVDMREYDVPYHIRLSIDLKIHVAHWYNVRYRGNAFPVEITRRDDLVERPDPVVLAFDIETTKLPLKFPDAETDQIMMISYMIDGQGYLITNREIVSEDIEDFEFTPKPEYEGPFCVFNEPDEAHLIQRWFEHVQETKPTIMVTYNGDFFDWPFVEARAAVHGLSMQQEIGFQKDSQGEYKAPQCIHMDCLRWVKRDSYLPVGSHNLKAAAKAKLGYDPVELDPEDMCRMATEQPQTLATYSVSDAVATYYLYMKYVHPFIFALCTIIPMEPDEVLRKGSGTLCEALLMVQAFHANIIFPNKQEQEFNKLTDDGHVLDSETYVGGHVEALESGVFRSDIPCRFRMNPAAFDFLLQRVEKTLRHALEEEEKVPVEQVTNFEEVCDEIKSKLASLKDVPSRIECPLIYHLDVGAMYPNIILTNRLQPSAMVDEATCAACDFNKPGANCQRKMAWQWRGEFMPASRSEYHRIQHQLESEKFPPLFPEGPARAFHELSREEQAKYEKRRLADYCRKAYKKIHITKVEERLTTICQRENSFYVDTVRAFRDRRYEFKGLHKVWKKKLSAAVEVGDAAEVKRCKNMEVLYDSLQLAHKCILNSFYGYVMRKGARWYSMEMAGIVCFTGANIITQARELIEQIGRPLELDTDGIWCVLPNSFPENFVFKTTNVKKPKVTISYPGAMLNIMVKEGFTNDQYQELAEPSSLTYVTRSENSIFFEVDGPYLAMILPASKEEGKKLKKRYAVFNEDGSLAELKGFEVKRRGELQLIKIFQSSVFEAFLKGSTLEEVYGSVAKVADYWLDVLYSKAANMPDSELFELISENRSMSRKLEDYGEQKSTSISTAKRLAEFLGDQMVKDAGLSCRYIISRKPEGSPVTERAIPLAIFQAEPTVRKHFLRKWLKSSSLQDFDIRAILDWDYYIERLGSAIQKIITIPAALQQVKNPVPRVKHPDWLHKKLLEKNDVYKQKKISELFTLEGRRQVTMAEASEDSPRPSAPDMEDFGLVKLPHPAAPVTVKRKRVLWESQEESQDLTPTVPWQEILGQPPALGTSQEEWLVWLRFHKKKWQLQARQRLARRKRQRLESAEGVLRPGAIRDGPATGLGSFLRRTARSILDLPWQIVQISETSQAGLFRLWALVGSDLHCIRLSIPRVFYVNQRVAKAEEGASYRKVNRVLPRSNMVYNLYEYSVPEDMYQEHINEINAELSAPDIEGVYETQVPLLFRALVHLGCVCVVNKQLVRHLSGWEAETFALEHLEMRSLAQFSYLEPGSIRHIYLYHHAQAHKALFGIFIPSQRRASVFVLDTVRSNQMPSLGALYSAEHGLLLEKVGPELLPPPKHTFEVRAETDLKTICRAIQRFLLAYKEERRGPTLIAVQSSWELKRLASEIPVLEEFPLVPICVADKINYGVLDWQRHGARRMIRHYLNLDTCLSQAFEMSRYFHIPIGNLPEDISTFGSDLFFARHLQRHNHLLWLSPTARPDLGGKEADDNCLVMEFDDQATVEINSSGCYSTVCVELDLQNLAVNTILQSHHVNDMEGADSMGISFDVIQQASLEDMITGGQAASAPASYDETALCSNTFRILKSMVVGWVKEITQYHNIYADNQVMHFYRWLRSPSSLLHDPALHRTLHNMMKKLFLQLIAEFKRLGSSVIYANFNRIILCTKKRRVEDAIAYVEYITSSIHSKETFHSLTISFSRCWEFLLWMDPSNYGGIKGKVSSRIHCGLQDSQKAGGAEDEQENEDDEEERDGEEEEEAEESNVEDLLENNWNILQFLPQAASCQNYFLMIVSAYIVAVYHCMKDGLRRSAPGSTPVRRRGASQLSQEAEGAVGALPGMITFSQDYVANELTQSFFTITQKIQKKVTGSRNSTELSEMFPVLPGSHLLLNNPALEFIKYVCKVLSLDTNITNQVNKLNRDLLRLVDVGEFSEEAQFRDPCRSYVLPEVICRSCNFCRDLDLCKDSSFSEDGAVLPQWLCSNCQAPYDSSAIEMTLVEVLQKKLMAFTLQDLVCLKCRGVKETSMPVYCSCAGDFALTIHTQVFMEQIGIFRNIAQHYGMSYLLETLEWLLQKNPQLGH

C/C=C/c1occ(C(=O)c2c(OC)cc(OC)cc2C(=O)OC)c(=O)c1OC [compound 1, 3-O-methylfunicone]
effect on cauliflower pol α activity (cauliflower pol α): no effect | effect on pol λ activity (human pol λ): hardly influenced | effect on pol ɛ activity (human pol ɛ): hardly influenced | effect on pol κ activity (human pol κ; 100 μM): selectively inhibit | pIC50 (human pol κ; poly(dA)/oligo(dT)18 and dTTP, 0.05 units enzyme, read-out: 50% inhibition of pol κ (IC50)): 4.90 | effect on human topoisomerase I activity (human topoisomerase I): did not influence | effect on T4 polynucleotide kinase activity (T4 polynucleotide kinase): did not influence | effect on pol γ activity (human pol γ): hardly influenced | effect on pol ι activity (mouse pol ι; 100 μM): selectively inhibit | pIC50 (mouse pol ι; poly(dA)/oligo(dT)18 and dTTP, 0.05 units enzyme, read-out: 50% inhibition of pol ι (IC50)): 4.46

Reference: PMC2810227, “3-O-Methylfunicone, a Selective Inhibitor of Mammalian Y-Family DNA Polymerases from an Australian Sea Salt Fungal Strain” (Marine Drugs, 2009)
